Assays:
A2780 cells [1] = test: Cellular accumulation of Cu by ICP-MS; type: cell-based, human; details: 24 h exposure, 1 μM
Excerpt: The ability of anticancer drugs to penetrate biological membranes, tissues, and barriers underlies their biological, pharmacokinetic, and metabolic properties. These properties can be predicted by calculating physicochemical characteristics of drug candidates using molecular descriptors.[30] […] The results are shown in Table S7 in the Supporting Information. On the basis of the calculated physicochemical parameters, we determined if novel compounds belonged to the drug-like chemical space, which is commonly defined by the well-known Lipinski rule, or to the known drug space (KDS), which includes all small compounds in medical use.[31] […] Following the calculations, we determined the lipophilicity of all compounds experimentally (log D7.4, Tables 1 and 2). It is known that cancer cells accumulate hydrophilic compounds to a smaller extent relative to hydrophobic compounds, thereby affecting their activity. […] As expected, proligands were more lipophilic than the corresponding Cu(II) species, which are positively charged at physiological pH (Figure 3b). […] The lipophilicity of 2–5 increased in the following order 4 < 2 < 3 < 5, and correlated well with their cytotoxicity in cancer cells, with the exception of 3. Subsequently, we determined the total cellular accumulation of Cu in A2780 cells by ICP–MS upon 24 h exposure to 1–6 in comparison with CuCl2 (Table 2). […] The accumulation increased in the order 6 < 1 < 3 < 4 < 2 < 5.
Cellular accumulation of 1–6 was determined in A2780 cells. Cells were seeded into Cellstar 6-well plates (Greiner Bio-one) at a density of 60 × 10^4 cells/well (2 mL per well). After the cells were allowed to resume exponential growth for 24 h, they were exposed to 1–6 at 1 μM for 24 h at 37 °C. The cells were washed twice with 1 mL of PBS and lysed with RIPA lysis buffer for 5–10 min at 4 °C. The cell lysates were scraped from the wells and transferred to separate 1.5 mL microtubes. The supernatant was then collected after centrifugation (13 000 rpm, 4 °C for 15 min) and total protein content of each sample was quantified via Bradford’s assay. Cell lysates were transferred to 2 mL glass vials and then digested with ultrapure 65% HNO3 at 100 °C for 24 h. The resulting solution was diluted to 1 mL (2–4% v/v HNO3) with ultrapure Milli-Q water. Cu content of each sample was quantified by ICP–MS. In was used as an internal standard. Cu and In were measured at m/z 64 and m/z 115, respectively. Metal standards for calibration curve (0, 0.5, 1, 2, 5, 10, 20, and 40 ppb) were freshly prepared before each measurement. All readings were made in triplicates in He mode. For temperature-dependent cellular accumulation experiments, A2780 cells were seeded into 35 n 10 mm tissue culture plates at a density of 60 0 10^4 cells/plate. After the cells were allowed to resume exponential growth for 24 h, they were exposed to 2 at 3 μM for 10, 30, 60, and 120 min at 37 and 4 °C. The subsequent analysis was performed as described above. For energy-dependent experiments, A2780 cells were seeded into 35 5 10 mm tissue culture plates at a density of 1 0 10^6 cells/plate. After the cells were allowed to resume exponential growth for 24 h, they were preincubated with oligomycin (5 μM) for 1 or 4 h or with cycloheximide (100 μM) for 4 h and further co-incubated with 3 μM of 2 at 37 °C. To induce total starvation, after the cells were allowed to resume exponential growth for 24 h, RPMI media was replaced with HBSS, and cells were preincubated in HBSS for 1 h and further incubated with 3 μM of 2 for 1 h at 37 °C. The subsequent analysis was performed as described above.

HEK293 cells = test: MTT cytotoxicity assay, HEK293; type: cell-based, human; details: for SF (selectivity factor): IC50(HEK293)/IC50(A2780); for IC50: MTT assay, 72 h exposure, noncancerous cells
A2780 cells [2] = test: MTT cytotoxicity assay, A2780; type: cell-based, human; details: 72 h exposure
[3] = system: Pseudomonas aeruginosa PAO1 CECT 4122 (ATCC 15692); test: MIC microdilution, P. aeruginosa; type: cell-based; details: planktonic cells; for P. aeruginosa MIC50: growth inhibited at 50%; for P. aeruginosa MIC100: lowest concentration completely inhibiting growth
Method: Wild-type P. aeruginosa PAO1 strain CECT 4122 (ATCC 15692) and S. aureus CECT 86 (ATCC 12600) were obtained from the Spanish Type Culture Collection (CECT). All strains were routinely cultivated in TSB medium (Sharlab, Spain) at 37 °C. MIC assays were determined by the microdilution method using TSB broth following the method described by the Clinical and Laboratory standards Institute.[94] In brief, compounds were diluted in a 96-well microtiter plate (tissue culture-treated polystyrene; […]

[4] = Cyclic voltammetry, redox potentials; type: physicochemical; details: first reduction step
Method: To assess the redox properties of 1-6, detailed electrochemical and spectroscopic studies in various solvents were performed using cyclic voltammetry as well as EPR-spectroelectrochemistry. Additionally, the UV-vis spectra of 1-5 were measured (Figure S8). […] The second reduction step occurred at -1.8 V versus Fc^+/Fc (-1.16 V vs NHE) and was less reversible, indicating a ligand-based reduction. […] In aqueous solutions, the reduction potentials shifted to the less negative values, and reduction was less reversible as shown for 2 in Figure S10. […] Cyclic voltammetric experiments were performed as described previously.[46] The cyclic voltammograms were measured in the cathodic region in different solvents (DMSO, methanol, DMSO/H2O). The analytical purity grade LiClO4 (Sigma-Aldrich) and distilled and deionized water were used for preparation of 1 mM aqueous solutions of the investigated complexes 1-6. EPR spectra were recorded with the EMX plus. In situ UV-vis-NIR spectroelectrochemical measurements were performed on a spectrometer (Avantes, Model AvaSpec-2048x14-USB2 in the spectroelectrochemical cell kit ([…]3)) with the Pt-microstructured honeycomb working electrode, purchased from Pine Research Instrumentation. The cell was positioned in the CUV-UV Cuvette Holder (Ocean Optics) connected to the diode-array UV-vis-NIR spectrometer by optical fibers. UV-vis-NIR spectra were processed using the AvaSoft 7.7 software package. Halogen and deuterium lamps were used as light sources (Avantes, Model AvaLight-DH-S-BAL). The in situ EPR spectroelectrochemical experiments were carried out under an argon atmosphere in the EPR flat cell equipped with a large platinum mesh working electrode. The freshly prepared solutions were carefully purged with argon and the electrolytic cell was polarized in the galvanostatic mode directly in the cylindrical EPR cavity TM-110 (ER 4103 TM), and the EPR spectra were measured in situ.

Row | Structure (SMILES) | cellular accumulation A2780 (A2780 cells [1]) | SF (selectivity factor) (HEK293 cells) | IC50 (HEK293 cells) | IC50 (A2780 cells [2]) | P. aeruginosa MIC50 [3] | P. aeruginosa MIC100 [3] | E1/2 Red1 (DMSO) vs Fc+/Fc ([4]; vs Fc+/Fc) | E1/2 Red1 (DMSO) vs NHE ([4]; vs NHE (in brackets)) | E1/2 Red1 (H2O) vs Fc+/Fc ([4]; H2O, vs Fc+/Fc) | E1/2 Red1 (H2O) vs NHE ([4]; H2O, vs NHE (in brackets)) | E1/2 Red1 (MeOH) vs Fc+/Fc ([4]; vs Fc+/Fc) | E1/2 Red1 (MeOH) vs NHE ([4]; vs NHE (in brackets))
1 | CN(C)C(=NN=Cc1ccc(CN2CCOCC2)cn1)[S][Cu][Cl] [complex 2, [Cu(L^2)Cl]] | 3.9 ± 0.6 nmol Cu/mg protein | 2.7 | 32 ± 8 nM | 12 ± 2 nM | 70 µg/mL | 200 µg/mL | –0.80 V | –0.16 V | –0.52 V | +0.12 V | –0.54 V | +0.10 V
2 | [Cl][Cu][S]C(=NN=Cc1ccc(CN2CCOCC2)cn1)Nc1ccccc1 [complex 5, [Cu(L^5)Cl]] | 4.1 ± 0.9 nmol Cu/mg protein | 2.2 | 20 ± 3 nM | 9 ± 2 nM | 200 µg/mL | 450 µg/mL | –0.77 V | –0.13 V | – | – | –0.48 V | +0.16 V
